Test results from patent US20170014417A1, “PHARMACEUTICAL ADMINISTRATION SYSTEM FOR THE TRANSDERMAL APPLICATION OF VARDENAFIL” (LIPP LIFE SCIENCES LLC, priority 2015, published 2017).
Where two headings read alike, the source gives them in different places.

How the values were obtained:
[1] = cited from earlier work
[2] = in vitro-permeation test through Heat Separated Human Epidermis (HSHE), Hanson Vertical Diffusion Cells; assay type: in vitro ADME; settings: Formulation 3
Protocol: In a 10 mL flask with a stopper, 100 mg of vardenafil (base; from LGM Pharma) and 400 mg of isopropylmyristate were mixed with 9.5 g of 2-propanol/water (70% v/v) and shaken for 10 minutes at ambient temperature to obtain the formulation below. The resulting crystal free formulation was subjected to an in vitro-permeation test through Heat Separated Human Epidermis (HSHE), which is highly predictive for in vivo-transdermal flux rates.
Permeation experiments were conducted in duplicate (using 2 cells) following a Standard Operating Procedure for using Hanson Vertical Diffusion Cells (7 mL) mounted with Heat Separated Human Epidermis, an in vitro-experiment with high predictability for transdermal in vivo-fluxes. […]
200 mg of the formulation were applied on each Heat Separated Human Epidermis. […] Samples were withdrawn at predetermined time intervals (see Tables 1 and 2 below) and subjected to HPLC quantification of vardenafil (V).
Permeation experiments were conducted following a Standard Operating Procedure for using Hanson Vertical Diffusion Cells (7 mL) mounted with Heat Separated Human Epidermis, an in vitro-experiment with high predictability for transdermal in vivo-fluxes. […] Samples were withdrawn at predetermined time intervals (see Table 3 below) and subjected to HPLC quantification of vardenafil (V). […]

[3] = Calculation of required transdermal flux rates for the once daily treatment of erectile dysfunction (ED); settings: human
[4] = cited from earlier work; remark: listed apart in the source

SMILES: CCCc1nn(C)c2c(=O)[nH]c(-c3cc(S(=O)(=O)N4CCN(C)CC4)ccc3OCC)nc12 [sildenafil]
- log P ([1]; Table 12): 1.9

SMILES: CN1CC(=O)N2[C@H](c3ccc4c(c3)OCO4)c3[nH]c4ccccc4c3C[C@@H]2C1=O [tadalafil]
- log P ([1]; Table 12): 1.7

SMILES: C[C@]12CC[C@H]3[C@@H](CCC4=CC(=O)CC[C@@]43C)[C@@H]1CC[C@@H]2O [testosterone]
- log P [1]: 3.4

SMILES: CCCc1nc(C)c2c(=O)[nH]c(-c3cc(S(=O)(=O)N4CCN(CC)CC4)ccc3OCC)nn12 [vardenafil]
- transdermal flux rate achieved (formulation) [2]: 27 μg/cm^2 μg/cm^2 over 24 h
- systemically available required dose for once daily treatment of ED (calculated) [3]: 0.75 mg
- calculated transdermal flux rates required to deliver systemic doses for treatment of ED upon application on 200 cm^2 ([3]; 24 h): 3.8 μg/cm^2 μg/cm^2 over 24 h
- log P ([1]; Table 12): 1.4
- log P [1]: 1.4
- plasma half-life ([4]; after oral administration): approximately 3 h
- median time to reach maximum concentration in plasma ([4]; oral administration, fasted state (Staxyn prescribing information)): 1.5 h
- absolute bioavailability ([4]; upon oral dosing in man): approximately 15%
